Laboratory results published in article PMC5063576, “High Potency VEGFRs/MET/FMS Triple Blockade by TAS-115 Concomitantly Suppresses Tumor Progression and Bone Destruction in Tumor-Induced Bone Disease Model with Lung Carcinoma Cells” (PLoS ONE, 2016).
pIC50: −log10 of the molar value.

Key:
[1] = system: M-CSF dependent bone marrow macrophages (MDBMs); assay: In vitro osteoclast differentiation assay (TRAP activity); format: cell-based, mouse; details: MDBMs with hM-CSF and rhsRANKL for 4 days
Procedure: To prepare macrophage colony-stimulating factor (M-CSF) dependent bone marrow macrophages (MDBMs), bone marrow cells were obtained from the femurs of male BALB/c mice (CLEA Japan) and adherent cells were cultured with human M-CSF (hM-CSF; 10000 U/mL) for 6 days. MDBMs were collected and cultured with hM-CSF (10000 U/mL) and recombinant human soluble RANKL (rhsRANKL)-GST (5 nM) for 4 days (25000 cells/well in a 96 well flat plate) for induction of differentiation into osteoclasts. Test compounds were then added to the culture media at the indicated concentration. TRAP activities were measured using the commercially available TRACP and ALP Assay Kit (TAKARA BIO INC).

[2] = system: TRAP-positive osteoclasts at tumor-bone boundary; assay: TRAP staining of A549-Luc-BM1-implanted tibiae, osteoclast number; format: in vivo, BALB/c nude mice; details: 2 weeks oral; TAS-115 200, cabozantinib 15, sunitinib 40, crizotinib 100 mg/kg, combination; vs control
Procedure: On day 15, the mice were euthanized by cervical dislocation under isoflurane anesthesia, and their tibiae were collected. For CD31 staining, frozen sections (3 μm thick) were prepared using Kawamoto’s film method. Purified Rat Anti-Mouse CD31 (1:100, BD Pharmingen^TM) was detected using Simple Stain^TM Mouse MAX PO (Rat) (Nichirei) and 3,3’-diaminobenzidine (Dako, Glostrup, Denmark). For Ki-67 and TRAP staining, formalin-fixed paraffin-embedded sections (2 μm thick) were prepared. Anti-human Ki-67 Rabbit Monoclonal Antibody (1:50, Epitomics) was detected using the EnVisionTM^+ System (Dako). TRAP staining was performed using the TRAP/ALP Stain Kit (Wako Pure chemical Industries, Ltd.). To quantify each staining, whole slides were scanned under 20× magnification with the Aperio Scan-Scope XT Slide Scanner (Aperio Technologies, Inc., CA). To quantify CD31-positive microvessels as microvessel density (MVD, number/mm^2), four fields of tumor area per section excluding bone and necrotic tissue were analyzed by using Image-Pro Plus (Media Cybernetics, Inc., Carlsbad, CA). […] Ki-67-positive cells and total tumor cells were counted by using Image-Pro Plus. The Ki-67 index is expressed as a percentage (the number of Ki-67-positive tumor cells / the total number of the tumor cells × 100). […] The boundary length was calculated by Image-Pro Plus. […]

[3] = system: FMS phosphorylation in human acute monocytic THP-1 leukemia cells; assay: M-CSF-induced FMS phosphorylation in THP-1 cells (immunoblotting); format: cell-based; details: 2 h, 120 min compound incubation, 30 ng/mL M-CSF, read-out: cellular IC50 against M-CSF-induced FMS phosphorylation
Procedure: Supplementary file pone.0164830.s005.tif: S5 Fig The inhibition of the FMS signaling pathway in human acute monocytic leukemia THP-1 cells by TAS-115. […] After incubation with the compounds for 120 min, THP-1 cells were stimulated with 30 ng/mL of M-CSF and lysed at 1 min post M-CSF stimulation. Specific proteins in the cell lysates were detected using immune blotting and were quantified using Multi Gauge Ver 3.2 (FUJIFILM). IC50 values were calculated using Xlfit 5.3.0.8 (CTC Life Science Corporation, Tokyo, Japan). (TIF) Click here for additional data file.

[4] = system: A549-Luc-BM1-implanted tibia; assay: Bone morphometrical analyses by micro-CT; format: in vivo, BALB/c nude mice; details: micro-CT after 4 weeks dosing; TAS-115 200, cabozantinib 15, sunitinib 40, crizotinib 100 mg/kg oral; vs control
Procedure: On day 29, the mice were euthanized by cervical dislocation under isoflurane anesthesia, and subsequently the A549-Luc-BM1-implanted tibia was removed and was fixed in 4% paraformaldehyde solution. Micro-CT imaging was performed by using Rm_CT2 (Rigaku corporation, Tokyo, Japan) with the following parameters: 90 kV, 160 μA, 3 min exposure, 10 mm field of view (20 μm voxel size). After scanning, 3D reconstruction was performed to produce a series of cross-sectional images by using specific software (3D Viewer Version 3.00.01, Rigaku corporation). In addition, bone mineral density (BMD) and 3D morphometrical primary parameters, including total volume (TV) and bone volume (BV), were calculated by using bone microstructure software (TRI/3D-BON-FCS64, Ratoc System Engineering, Tokyo, Japan). Volumetric BMD (vBMD), which has been reported to be a good index of osteoporosis, was calculated from primary parameters using the following formula: vBMD = BMD × BV / TV.

[5] = system: VEGFR2 phosphorylation in MDBMs; assay: In vitro MDBM signaling, rhVEGF-induced VEGFR2 phosphorylation; format: cell-based, mouse; details: rhVEGF 100 ng/mL 5 min, immunoprecipitation and Western blotting
Procedure: For analysis of the expression and phosphorylation levels of FMS, MET and VEGFR2, MDBMs were cultured with hM-CSF (20000 U/mL) for 4 days (400000 cells/dish in Suspension Culture Dishes (Corning Inc., NY). The phosphorylation levels of FMS and downstream signaling molecules were then analyzed in these MDBMs following incubation for 1 hr with test compounds at the indicated concentration. The phosphorylation of MET or VEGFR2 was analyzed in these MDBMs following stimulation with rhHGF (100 ng/mL, 10 min) or rhVEGF (100 ng/mL, 5 min), respectively. After incubation, the MDBMs were harvested, the cells were lysed and target signaling proteins were detected by immunoblotting. For analysis of VEGFR2 and its phosphorylated form, the lysate was immunoprecipiated with an anti-VEGFR antibody prior to immunoblotting.

VEGFR2 = VEGFR2 (Homo sapiens, UniProt P35968); assay: In vitro kinase assay, VEGFR2; format: biochemical; details: assay as described previously [16]
Procedure: Enzyme inhibition studies were performed using LANCE® Ultra TR-FRET assay technology. Briefly, 0.03 μg/mL dephospho-rhFMS and 100 nM ULightTM-poly GT (4:1) (PerkinElmer) were mixed and incubated for 40 min at 25°C in 10 μL of reaction mixture containing 100 μM ATP, 15 mM tris (hydroxymethyl) aminomethane (Tris (pH 7.5)), 0.01% (v/v) Tween 20, 5 mM MgCl2, 2 mM dithiothreitol and various concentrations of the test compound. […] By referring to the TR-FRET signals of positive (no inhibitor) and negative (EDTA was added before the reaction was started) control wells, the percent inhibition of each well was calculated and the half-maximal inhibitory concentration (IC50) value was determined using a four-parameter sigmoidal equation. The assay of MET and VEGFR2 kinase activity was performed as described previously.

VEGFR2, sequence (P35968 20-1356, species assumed): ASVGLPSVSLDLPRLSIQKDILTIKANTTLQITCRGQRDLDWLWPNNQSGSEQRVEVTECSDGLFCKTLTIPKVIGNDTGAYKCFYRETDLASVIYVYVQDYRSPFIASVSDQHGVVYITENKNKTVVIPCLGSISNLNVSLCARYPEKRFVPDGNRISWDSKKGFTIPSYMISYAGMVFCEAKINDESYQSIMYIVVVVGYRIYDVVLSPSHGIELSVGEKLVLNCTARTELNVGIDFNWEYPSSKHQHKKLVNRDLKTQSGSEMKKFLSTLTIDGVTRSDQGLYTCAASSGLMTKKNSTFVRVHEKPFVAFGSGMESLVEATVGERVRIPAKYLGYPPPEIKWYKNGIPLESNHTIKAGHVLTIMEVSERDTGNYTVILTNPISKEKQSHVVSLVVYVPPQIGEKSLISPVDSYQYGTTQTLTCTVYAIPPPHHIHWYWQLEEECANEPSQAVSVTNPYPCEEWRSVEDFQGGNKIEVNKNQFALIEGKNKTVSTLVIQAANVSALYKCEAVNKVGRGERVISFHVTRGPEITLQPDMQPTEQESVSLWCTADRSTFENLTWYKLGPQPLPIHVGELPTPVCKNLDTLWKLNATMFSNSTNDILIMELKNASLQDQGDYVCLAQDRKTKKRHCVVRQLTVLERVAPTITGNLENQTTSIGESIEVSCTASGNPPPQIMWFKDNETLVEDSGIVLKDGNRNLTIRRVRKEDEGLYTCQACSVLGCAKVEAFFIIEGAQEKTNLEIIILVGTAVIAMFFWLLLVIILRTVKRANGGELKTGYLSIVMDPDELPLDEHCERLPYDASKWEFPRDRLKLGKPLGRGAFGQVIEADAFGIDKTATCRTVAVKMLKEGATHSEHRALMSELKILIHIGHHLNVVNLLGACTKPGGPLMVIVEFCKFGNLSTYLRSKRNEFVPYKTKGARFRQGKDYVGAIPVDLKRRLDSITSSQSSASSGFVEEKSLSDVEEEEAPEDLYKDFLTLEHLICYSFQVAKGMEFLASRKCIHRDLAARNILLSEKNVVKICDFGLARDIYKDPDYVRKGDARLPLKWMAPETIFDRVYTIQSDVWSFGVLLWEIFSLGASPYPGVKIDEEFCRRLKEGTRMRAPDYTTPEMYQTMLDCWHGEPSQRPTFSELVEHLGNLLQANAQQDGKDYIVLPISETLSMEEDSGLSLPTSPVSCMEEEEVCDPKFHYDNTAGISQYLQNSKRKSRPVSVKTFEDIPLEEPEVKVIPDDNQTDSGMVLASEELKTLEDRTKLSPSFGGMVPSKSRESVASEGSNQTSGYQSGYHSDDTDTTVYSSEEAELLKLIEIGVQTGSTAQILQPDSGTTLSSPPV

pIC50 [3]: 7.92
pIC50 (VEGFR2): 7.52
Structure (SMILES): CNC(=O)c1cc2c(Oc3ccc(NC(=S)NC(=O)Cc4ccccc4)cc3F)ccnc2cc1OC [TAS-115, 4-[2-fluoro-4-[[[(2-phenylacetyl)amino]thioxomethyl]amino]-phenoxy] -7-methoxy-N-methyl-6-quinolinecarboxamide]
concentration that potently inhibited / markedly affected RANKL and M-CSF-induced mouse osteoclast formation [1]: 0.3 µM
number of TRAP-positive osteoclasts at tumor-bone boundary [2]: significantly decreased
A549-Luc-BM1-induced changes in bone parameters (BV, TV, BMD, vBMD) [4]: significantly suppressed all of the changes
concentration inhibiting the phosphorylation of VEGFR2 [5]: greater than 0.03 μM
